# Results as given in patent US20250236613A1, “SARM1 MODULATORS, PREPARATIONS, AND USES THEREOF” (SIRONAX LTD., priority 2021, published 2025).
# Molecular target: SARM1 (50-724) (Homo sapiens (Human), UniProt Q6SZW1)
# Assay: SARM1 (50-724) enzymatic assay
# Format: biochemical
# Details: SARM1 inhibitory activity; 2 nM SARM1 (50-724), 200 μM NMN activator, 100 μM NAD+ substrate, 1 h, LC-MS/MS
# Protocol: The enzymatic assay was performed in a 384-well plate using Dulbecco's PBS buffer as the reaction buffer. Purified SARM1 (50-724) with a final concentration of 2 nM was pre-incubated with the test compound at 1% DMSO final assay concentration for 15 min at room temperature. The reaction was initiated by adding the mixture of 200 μM NMN as activator and 100 μM NAD^+ as substrate. After 1 h of incubation at room temperature, the reaction was terminated with 10 times volume of 70% acetonitrile, then centrifuged at 3800 rpm for 10 min. The samples were analyzed using LC-MS/MS after diluted to the proper concentration by 10 mM ammonium acetate (pH 9.75).
# Chain of SARM1 (50-724) (Q6SZW1 50-724): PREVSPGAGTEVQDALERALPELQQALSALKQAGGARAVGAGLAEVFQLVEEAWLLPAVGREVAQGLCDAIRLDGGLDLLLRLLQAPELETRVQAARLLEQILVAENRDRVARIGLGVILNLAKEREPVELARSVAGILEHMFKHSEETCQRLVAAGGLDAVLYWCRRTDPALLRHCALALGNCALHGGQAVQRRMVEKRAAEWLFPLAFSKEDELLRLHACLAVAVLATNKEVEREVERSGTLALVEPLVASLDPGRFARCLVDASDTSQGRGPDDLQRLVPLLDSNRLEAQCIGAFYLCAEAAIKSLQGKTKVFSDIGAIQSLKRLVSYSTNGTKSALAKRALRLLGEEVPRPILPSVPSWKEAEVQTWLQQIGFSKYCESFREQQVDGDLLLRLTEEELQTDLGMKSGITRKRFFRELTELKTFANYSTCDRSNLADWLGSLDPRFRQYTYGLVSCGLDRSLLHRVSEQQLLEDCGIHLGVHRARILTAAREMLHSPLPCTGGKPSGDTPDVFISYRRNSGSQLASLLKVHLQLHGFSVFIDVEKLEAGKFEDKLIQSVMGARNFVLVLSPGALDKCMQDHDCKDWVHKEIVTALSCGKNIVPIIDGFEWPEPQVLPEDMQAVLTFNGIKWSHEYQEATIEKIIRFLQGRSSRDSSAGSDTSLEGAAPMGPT
row,SMILES,IC50 [µM]
1,"O=c1cc(-c2cccnc2)cc[nH]1 [Compound 1, [3,4′-bipyridin]-2′(1′H)-one]",5 to 15
2,"COc1ccncc1-c1cc[nH]c(=O)c1 [Compound 3, 4-methoxy-[3,4′-bipyridin]-2′(1′H)-one]",< 5
3,"Cc1ccncc1-c1cc(O)cc(C#N)c1 [Compound 5, 3-hydroxy-5-(4-methylpyridin-3-yl)benzonitrile]",< 5
4,"Cc1ccncc1-c1cccc(S(N)(=O)=O)c1 [Compound 7, 3-(4-methylpyridin-3-yl)benzenesulfonamide]",< 5
5,"Cc1ccncc1-c1ccc(CN)cc1 [Compound 8, (4-(4-methylpyridin-3-yl)phenyl)methanamine]",< 5
6,"Cc1ccncc1-c1ccc(O)cc1 [Compound 9, 4-(4-methylpyridin-3-yl)phenol]",< 5
7,"Oc1cccc(-c2cccnc2)c1 [Compound 10, 3-(pyridin-3-yl)phenol]",15 to 30
8,"Cc1ccncc1-c1ccc(O)cc1F [Compound 12, 3-fluoro-4-(4-methylpyridin-3-yl)phenol]",> 30
9,"Cc1ccncc1-c1cccc(O)c1F [Compound 13, 2-fluoro-3-(4-methylpyridin-3-yl)phenol]",< 5
10,"Cc1ccncc1-c1cc(O)ccc1F [Compound 14, 4-fluoro-3-(4-methylpyridin-3-yl)phenol]",> 30
11,"Cc1ccncc1-c1cc(O)cc(Br)c1 [Compound 16, 3-bromo-5-(4-methylpyridin-3-yl)phenol]",< 5
12,"Cc1ccncc1-c1cc(O)cc(F)c1 [Compound 20, 3-fluoro-5-(4-methylpyridin-3-yl)phenol]",< 5
13,"Cc1ccncc1-c1cccc(O)c1C [Compound 26, 2-methyl-3-(4-methylpyridin-3-yl)phenol]",> 30
14,"Cc1ccncc1-c1cccc(O)c1Cl [Compound 27, 2-chloro-3-(4methylpyridin-3-yl)phenol]",> 30
15,"Cc1ccncc1-c1cc2cc[nH]c2cc1F [Compound 34, 6-fluoro-5-(4-methylpyridin-3-yl)-1H-indole]",> 30
16,"Cc1ccncc1-c1ccc(F)c(O)c1F [Compound 35, 2,6-difluoro-3-(4-methylpyridin-3-yl)phenol]",> 30
17,"Cc1ccncc1-c1ccc2c(c1F)NC(=O)C2=O [Compound 37, 7-fluoro-6-(4-methylpyridin-3-yl)indoline-2,3-dione]",5 to 15
18,"Cc1ccncc1-c1ccc(O)c(O)c1F [Compound 39, 3-fluoro-4-(4-methylpyridin-3-yl)benzene-1,2-diol]",15 to 30
19,"Cc1ccncc1-c1cnc2[nH]ncc2c1 [Compound 48, 5-(4-methylpyridin-3-yl)-1H-pyrazolo[3,4-b]pyridine]",15 to 30
20,"Cc1ccncc1-c1cc2cn[nH]c2cn1 [Compound 49, 5-(4-methylpyridin-3-yl)-1H-pyrazolo[3,4-c]pyridine]",> 30
21,"Cc1ccncc1-c1ccc2[nH]ncc2n1 [Compound 50, 5-(4-methylpyridin-3-yl)-1H-pyrazolo[4,3-b]pyridine]",5 to 15
22,"Cc1ccncc1-c1cncc(O)c1 [Compound 56, 4′-methyl-[3,3′-bipyridin]-5-ol]",5 to 15
23,"Cc1ccncc1-c1cc(O)cc(Cl)c1 [Compound 60, 3-chloro-5-(4-methylpyridin-3-yl)phenol]",< 5
24,"Cc1ccncc1-c1cc(F)c(O)c(Cl)c1 [Compound 61, 2-chloro-6-fluoro-4-(4-methylpyridin-3-yl)phenol]",5 to 15
25,"Cc1ccncc1-c1cccc(C(F)F)c1 [Compound 62, 3-(3-(difluoromethyl)phenyl)-4-methylpyridine]",< 5
26,"Cc1ccncc1-c1cc(O)cc(C(F)(F)F)c1 [Compound 63, 3-(4-methylpyridin-3-yl)-5-(trifluoromethyl)phenol]",< 5

# Further lines, results first:
row,IC50 [µM],SMILES
1,< 5,"Cc1ccncc1-c1cc[nH]c(=O)c1 [Compound 2, 4-methyl-[3,4′-bipyridin]-2′(1′H)-one]"
2,< 5,"Cc1ccncc1-c1cccc(O)c1 [Compound 4, 3-(4-methylpyridin-3-yl)phenol]"
3,< 5,"Cc1ccncc1-c1ccc(O)c(C#N)c1 [Compound 6, 2-hydroxy-5-(4-methylpyridin-3-yl)benzonitrile]"
4,> 30,"Cc1ccncc1-c1ccc(O)c(F)c1 [Compound 11, 2-fluoro-4-(4-methylpyridin-3-yl)phenol]"
5,< 5,"Cc1ccncc1-c1ccc(O)c(Br)c1 [Compound 15, 2-bromo-4-(4-methylpyridin-3-yl)phenol]"
6,< 5,"Cc1ccncc1-c1ccc(Br)c(O)c1 [Compound 17, 2-bromo-5-(4-methylpyridin-3-yl)phenol]"
7,15 to 30,"Cc1ccncc1-c1ccc2c(c1)C(=O)NCC2 [Compound 18, 7-(4-methylpyridin-3-yl)-3,4-dihydroisoquinolin-1(2H)-one]"
8,5 to 15,"Cc1ccncc1-c1ccc(F)c(O)c1 [Compound 19, 2-fluoro-5-(4-methylpyridin-3-yl)phenol]"
9,< 5,"Cc1ccncc1-c1ccc2[nH]ccc2c1 [Compound 21, 5-(4-methylpyridin-3-yl)-1H-indole]"
10,15 to 30,"Cc1ccncc1-c1ccc2cc[nH]c2c1 [Compound 23, 6-(4-methylpyridin-3-yl)-1H-indole]"
11,< 5,"Cc1ccncc1-c1ccc2[nH]ncc2c1 [Compound 24, 5-(4-methylpyridin-3-yl)-1H-indazole]"
12,< 5,"Cc1ccncc1-c1ccc2[nH]cnc2c1 [Compound 25, 5-(4-methylpyridin-3-yl)-1H-benzo[d]imidazole]"
13,< 5,"Cc1cc(-c2cnccc2C)ccc1O [Compound 28, 2-methyl-4-(4-methylpyridin-3-yl)phenol]"
14,< 5,"CCc1cc(-c2cnccc2C)ccc1O [Compound 29, 2-ethyl-4-(4-methylpyridin-3-yl)phenol]"
15,> 30,"COc1cc(-c2cnccc2C)ccc1O [Compound 30, 2-methoxy-4-(4-methylpyridin-3-yl)phenol]"
16,< 5,"Cc1ccncc1-c1ccc(O)c(Cl)c1 [Compound 31, 2-chloro-4-(4-methylpyridin-3-yl)phenol]"
17,< 5,"Cc1ccc(-c2cnccc2C)cc1O [Compound 32, 2-methyl-5-(4-methylpyridin-3-yl)phenol]"
18,15 to 30,"Cc1ccncc1-c1ccc2c(c1)CCN2 [Compound 33, 5-(4-methylpyridin-3-yl)indoline]"
19,< 5,"Cc1ccncc1-c1ccc2[nH]nnc2c1 [Compound 36, 5-(4-methylpyridin-3-yl)-1H-benzol[d][1,2,3]triazole]"

row,IC50 [µM],SMILES
1,5 to 15,"CC(=O)c1ccc(-c2cnccc2C)cc1O [Compound 38, 1-(2-hydroxy-4-(4-methylpyridin-3-yl)phenyl)ethan-1-one]"
2,< 5,"Cc1ccncc1-c1ccc2[nH]c(=O)oc2c1 [Compound 40, 6-(4-methylpyridin-3-yl)benzo[d]oxazol-2(3H)-one]"
3,< 5,"Cc1ccncc1-c1ccc2c(c1)CC(=O)N2 [Compound 41, 5-(4-methylpyridin-3-yl)indolin-2-one]"
4,< 5,"Cc1ccncc1-c1ccc(N)c(O)c1 [Compound 42, 2-amino-5-(4-methylpyridin-3-yl)phenol]"
5,5 to 15,"Cc1ccncc1-c1ccc(O)c(N)c1 [Compound 43, 2-amino-4-(4-methylpyridin-3-yl)phenol]"
6,< 5,"Cc1ccncc1-c1ccc2[nH]c(=O)[nH]c2c1 [Compound 44, 5-(4-methylpyridin-3-yl)-1,3-dihydro-2H-benzo[d]imidazol-2-one]"
7,5 to 15,"Cc1ccncc1-c1ccc2c(c1)OCC(=O)N2 [Compound 45, 7-(4-methylpyridin-3-yl)-2H-benzo[b][1,4]oxazin-3(4H)-one]"
8,> 30,"Cc1ccncc1-c1ccc2c(c1)CNC(=O)N2 [Compound 46, 6-(4-methylpyridin-3-yl)-3,4-dihydroquinazolin-2(1H)-one]"
9,< 5,"Cc1ccncc1-c1ccc(O)c(O)c1 [Compound 47, 4-(4-methylpyridin-3-yl)benzene-1,2-diol]"
10,< 5,"Cc1ccncc1-c1ccc2c(c1)NC(=O)CO2 [Compound 51, 6-(4-methylpyridin-3-yl)-2H-benzo[b][1,4]oxazin-3(4H)-one]"
11,5 to 15,"Cc1ccncc1-c1ccc2oc(=O)[nH]c2c1 [Compound 52, 5-(4-methylpyridin-3-yl)benzo[d]oxazol-2(3H)-one]"
12,> 30,"Cc1ccncc1-c1ccc2c(c1)OCCN2 [Compound 53, 7-(4-methylpyridin-3-yl)-3,4-dihydro-2H-benzo[b][1,4]oxazine]"
13,15 to 30,"Cc1ccncc1-c1ccc2c(c1)NCCO2 [Compound 54, 6-(4-methylpyridin-3-yl)-3,4-dihydro-2H-benzo[b][1,4]oxazine]"
14,15 to 30,"Cc1ccncc1-c1ccc2c(c1)NC(=O)C2 [Compound 55, 6-(4-methylpyridin-3-yl)indolin-2-one]"
15,5 to 15,"Cc1ccncc1-c1ccc2[nH]c(=O)n(C)c2c1 [Compound 57, 1-methyl-6-(4-methylpyridin-3-yl)-1,3-dihydro-2H-benzo[d]imidazol-2-one]"
16,5 to 15,"Cc1ccncc1-c1cc(Cl)c2[nH]ncc2c1 [Compound 58, 7-chloro-5-(4-methylpyridin-3-yl)-1H-indazole]"
17,< 5,"Cc1ccncc1-c1ccc2c(c1)COC(=O)N2 [Compound 59, 6-(4-methylpyridin-3-yl)-1,4-dihydro-2H-benzo[d][1,3]oxazin-2-one]"
18,< 5,"Cc1ccncc1-c1ccc2[nH]c(N)nc2c1 [Compound 64, 5-(4-methylpyridin-3-yl)-1H-benzo[d]imidazol-2-amine]"
